Tests used:
[1] = test system: Phakopsora Pachyrhizi; assay: Fungicidal activity against Phakopsora pachyrhizi / soybean / leaf disc preventative (Asian soybean rust); assay type: in vivo; settings: foliar, 200 ppm in the applied formulation, soybean leaf disks, compared to untreated control leaf disks, read-out: disease control
Method in brief: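 Preventative soybean leaf-disc test: discs on water agar sprayed with diluted formulated compound, inoculated one day later with spores on the lower surface. Held 24–36 h dark at 20°C, 75% rh, then 12 h light/day; percent disease control versus untreated discs scored 12–14 days after application.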

[2] = test system: Puccinia recondita f. Sp. Tritici; assay: Fungicidal activity against Puccinia recondita f. sp. tritici / wheat / leaf disc curative (brown rust); assay type: in vivo; settings: foliar, 24 h, 200 ppm in the applied formulation, wheat leaf segments, curative (applied 1 day after inoculation), compared to untreated control leaf disks, read-out: disease control
Method in brief: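 Scoring is percent disease control relative to untreated segments, made 6 to 8 days after treatment. Wheat (cv. Kanzler) leaf segments received the formulated, water-diluted compound one day post-inoculation with spores, having been kept dark at 19° C and 75% RH, then incubated under 12 h light/12 h dark at the same temperature and humidity.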

[3] = test system: Puccinia recondita f. Sp. Tritici; assay: Fungicidal activity against Puccinia recondita f. sp. tritici / wheat / leaf disc preventative (brown rust); assay type: in vivo; settings: foliar, 200 ppm in the applied formulation, wheat leaf segments, preventative, compared to untreated control leaf disks, read-out: disease control
Method in brief: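 Compound application precedes infection: segments of wheat cv. Kanzler, sprayed at 200 ppm, are inoculated with a spore suspension after 1 day. Incubation is at 19° C. with 75% relative humidity and 12 h light/12 h darkness, and control versus untreated leaves is rated 7 to 9 days post-application.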

[4] = test system: Glomerella lagenarium (Colletotrichum lagenarium); assay: Fungicidal activity against Glomerella lagenarium (Colletotrichum lagenarium) liquid culture / cucumber / preventative (anthracnose); assay type: cell-based; settings: Colletotrichum orbiculare; 20 ppm in the applied formulation; liquid culture (PDB), growth inhibition measured photometrically after 3 to 4 days; compared to untreated control; read-out: disease control
Method in brief: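 Photometric read-out of fungal growth after 2–7 days, expressed as percent antifungal activity versus untreated check. Cryo-stored conidia in PDB; compound at 20 ppm; dark, 24 °C, 96% RH.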

O=C(C1CC1(F)F)N(O)Cc1ccc(-c2noc(C(F)(F)F)n2)cc1 (centres unmarked) [Compound 1.753, 2,2-difluoroN-hydroxy-N-[[4-[5-(trifluoromethyl)-1,2,4-oxadiazol-3-yl]phenyl]methyl]-cyclopropane-carboxamide]
≥ 80%: pest or weed control at 200 ppm [1] | pest or weed control at 200 ppm [2] | pest or weed control at 200 ppm [3] | inhibition of growth at 20 ppm [4]

CC(C)(C)C(=O)N(Cc1ccc(-c2noc(C(F)(F)F)n2)cc1)C1CC1 [Compound 1.117, N-cyclopropyl-2,2-dimethyl-N-[[4-[5-(trifluoromethyl)-1,2,4-oxadiazol-3-yl]phenyl]methyl]-propanamide]
≥ 80%: pest or weed control at 200 ppm [1] | pest or weed control at 200 ppm [2] | pest or weed control at 200 ppm [3] | inhibition of growth at 20 ppm [4]

CCC(C)C(=O)N(Cc1ccc(-c2noc(C(F)(F)F)n2)cc1)Cc1ccco1 (centres unmarked) [Compound 1.466]
≥ 80%: pest or weed control at 200 ppm [1] | pest or weed control at 200 ppm [2] | pest or weed control at 200 ppm [3] | inhibition of growth at 20 ppm [4]

C=CCN(Cc1ccc(-c2noc(C(F)(F)F)n2)cc1)C(=O)C1CC1 [Compound 1.494, N-allyl-N-[[4-[5-(trifluoromethyl)-1,2,4-oxadiazol-3-yl]phenyl]methyl]-cyclopropane-carboxamide]
≥ 80%: pest or weed control at 200 ppm [1] | pest or weed control at 200 ppm [2] | pest or weed control at 200 ppm [3] | inhibition of growth at 20 ppm [4]

C#CCN(Cc1ccc(-c2noc(C(F)(F)F)n2)cc1)C(=O)CCOC [Compound 1.173, 3-methoxy-N-prop-2-ynyl-N-[[4-[5-(trifluoromethyl)-1,2,4-oxadiazol-3-yl]phenyl]methyl]-propanamide]
≥ 80%: pest or weed control at 200 ppm [1] | pest or weed control at 200 ppm [2] | pest or weed control at 200 ppm [3] | inhibition of growth at 20 ppm [4]

CCN(Cc1ccc(-c2noc(C(F)(F)F)n2)cc1)C(=O)CC#N [Compound 1.510, 2-cyano-N-ethyl-N-[[4-[5-(trifluoromethyl)-1,2,4-oxadiazol-3-yl]phenyl]methyl]-acetamide]
≥ 80%: pest or weed control at 200 ppm [1] | pest or weed control at 200 ppm [2] | pest or weed control at 200 ppm [3] | inhibition of growth at 20 ppm [4]

CON(Cc1ccc(-c2noc(C(F)(F)F)n2)cc1)C(=O)N(C)C [Compound 3.5, 1-methoxy-3,3-dimethyl-1-[[4-[5-(trifluoromethyl)-1,2,4-oxadiazol-3-yl]phenyl]methyl]urea]
≥ 80%: pest or weed control at 200 ppm [1] | pest or weed control at 200 ppm [2] | pest or weed control at 200 ppm [3] | inhibition of growth at 20 ppm [4]

C=C(C)C(=O)N(Cc1ccc(-c2noc(C(F)(F)F)n2)cc1)C(C)CC (centres unmarked) [Compound 1.390, 2-methyl-N-sec-butyl-N-[[4-[5-(trifluoromethyl)-1,2,4-oxadiazol-3-yl]phenyl]methyl]-prop-2-enamide]
≥ 80%: pest or weed control at 200 ppm [1] | pest or weed control at 200 ppm [2] | pest or weed control at 200 ppm [3] | inhibition of growth at 20 ppm [4]

COCCN(Cc1ccc(-c2noc(C(F)(F)F)n2)cc1)C(=O)C1CCC1 [Compound 1.337, N-(2-methoxyethyl)-N-[[4-[5-(trifluoromethyl)-1,2,4-oxadiazol-3-yl]phenyl]methyl]-cyclobutane-carboxamide]
≥ 80%: pest or weed control at 200 ppm [1] | pest or weed control at 200 ppm [2] | pest or weed control at 200 ppm [3] | inhibition of growth at 20 ppm [4]

CCON(Cc1ccc(-c2noc(C(F)(F)F)n2)cc1)C(=O)N(C)OC [Compound 3.7, 1-ethoxy-3-methoxy-3-methyl-1-[[4-[5-(trifluoromethyl)-1,2,4-oxadiazol-3-yl]phenyl]methyl]urea]
≥ 80%: pest or weed control at 200 ppm [1] | pest or weed control at 200 ppm [2] | pest or weed control at 200 ppm [3] | inhibition of growth at 20 ppm [4]

CCN(Cc1ccc(-c2noc(C(F)(F)F)n2)cc1)C(=O)CCOC [Compound 1.496, N-ethyl-3-methoxy-N-[[4-[5-(trifluoromethyl)-1,2,4-oxadiazol-3-yl]phenyl]methyl]-propanamide]
≥ 80%: pest or weed control at 200 ppm [1] | pest or weed control at 200 ppm [2] | pest or weed control at 200 ppm [3] | inhibition of growth at 20 ppm [4]

CCC(=O)N(Cc1ccc(-c2noc(C(F)(F)F)n2)c(F)c1)OC [Compound 1.580, N-[[3-fluoro-4-[5-(trifluoromethyl)-1,2,4-oxadiazol-3-yl]phenyl]methyl]-N-methoxy-propanamide]
≥ 80%: pest or weed control at 200 ppm [1] | pest or weed control at 200 ppm [2] | pest or weed control at 200 ppm [3] | inhibition of growth at 20 ppm [4]

C#CCN(Cc1ccc(-c2noc(C(F)(F)F)n2)cc1)C(=O)C1CC1(F)F (centres unmarked) [Compound 1.157, 2,2-difluoro-N-prop-2-ynyl-N-[[4-[5-(trifluoromethyl)-1,2,4-oxadiazol-3-yl]phenyl]methyl]-cyclopropane-carboxamide]
≥ 80%: pest or weed control at 200 ppm [1] | pest or weed control at 200 ppm [2] | pest or weed control at 200 ppm [3] | inhibition of growth at 20 ppm [4]

CC1(C)CC1C(=O)N(Cc1ccc(-c2noc(C(F)(F)F)n2)cc1)C1CC1 (centres unmarked) [Compound 1.124, N-cyclopropyl-2,2-dimethyl-N-[[4-[5-(trifluoromethyl)-1,2,4-oxadiazol-3-yl]phenyl]methyl]-cyclopropane-carboxamide]
≥ 80%: pest or weed control at 200 ppm [1] | pest or weed control at 200 ppm [2] | pest or weed control at 200 ppm [3] | inhibition of growth at 20 ppm [4]

N#CCC(=O)N(O)Cc1ccc(-c2noc(C(F)(F)F)n2)cc1 [Compound 1.771, 2-cyano-N-hydroxy-N-[[4-[5-(trifluoromethyl)-1,2,4-oxadiazol-3-yl]phenyl]methyl]-acetamide]
≥ 80%: pest or weed control at 200 ppm [1] | pest or weed control at 200 ppm [2] | pest or weed control at 200 ppm [3] | inhibition of growth at 20 ppm [4]

C#CCN(Cc1ccc(-c2noc(C(F)(F)F)n2)cc1)C(=O)CC [Compound 1.185, N-prop-2-ynyl-N-[[4-[5-(trifluoromethyl)-1,2,4-oxadiazol-3-yl]phenyl]methyl]-propanamide]
≥ 80%: pest or weed control at 200 ppm [1] | pest or weed control at 200 ppm [2] | pest or weed control at 200 ppm [3] | inhibition of growth at 20 ppm [4]

O=C(Cc1cccnc1)N(Cc1ccc(-c2noc(C(F)(F)F)n2)cc1)C1CC1 [Compound 1.102, N-cyclopropyl-2-(3-pyridyl)-N-[[4-[5-(trifluoromethyl)-1,2,4-oxadiazol-3-yl]phenyl]methyl]-acetamide]
≥ 80%: pest or weed control at 200 ppm [1] | pest or weed control at 200 ppm [2] | pest or weed control at 200 ppm [3] | inhibition of growth at 20 ppm [4]

CON(Cc1ccc(-c2noc(C(F)(F)F)n2)cc1)C(=O)CC1CC1(F)F (centres unmarked) [Compound 1.64, 2-(2.2-difluorocyclopropyl)-N-methoxy-N-[[4-[5-(trifluoromethyl)-1,2,4-oxadiazol-3-yl]phenyl]methyl]-acetamide]
≥ 80%: pest or weed control at 200 ppm [1] | pest or weed control at 200 ppm [2] | pest or weed control at 200 ppm [3] | inhibition of growth at 20 ppm [4]

C=CCCC(=O)N(Cc1ccc(-c2noc(C(F)(F)F)n2)cc1)C1CC1 [Compound 1.91, N-cyclopropyl-N-[[4-[5-(trifluoromethyl)-1,2,4-oxadiazol-3-yl]phenyl]methyl]-pent-4-enamide]
≥ 80%: pest or weed control at 200 ppm [1] | pest or weed control at 200 ppm [2] | pest or weed control at 200 ppm [3] | inhibition of growth at 20 ppm [4]

C=CCN(Cc1ccc(-c2noc(C(F)(F)F)n2)cc1)C(=O)CCCOC [Compound 1.487, N-allyl-4-methoxy-N-[[4-[5-(trifluoromethyl)-1,2,4-oxadiazol-3-yl]phenyl]methyl]-butanamide]
≥ 80%: pest or weed control at 200 ppm [1] | pest or weed control at 200 ppm [2] | pest or weed control at 200 ppm [3] | inhibition of growth at 20 ppm [4]
